Data reported in PMC4158172 (European Journal of Clinical Pharmacology, 2014).
Read-outs that look alike come from different tables or passages of the source.

Tests used:
[1] = EFV plasma pharmacokinetics when co-administered with DTG, by CYP2B6 genotype; details: for AUC / Cmax / concentration at 24 h / Tmax / half-life: human; for AUC: AUC(0–τ); for Cmax: C max; for concentration at 24 h: C τ; for Tmax: T max; for half-life: t½
Experimental: This was a phase I, open-label, single-sequence, two-period, steady-state study. Subjects received DTG at a dose of 50 mg (two 25 mg tablets) every 24 hours (q24h) for 5 days (period 1), and then the combination of morning DTG 50 mg and evening EFV 600 mg q24h was given for 14 days (period 2). There was no washout between treatment periods. All doses were administered in the fasting state. Serial PK plasma samples were collected after each period for DTG, and samples after period 2 were also collected for EFV. The metabolic profile of DTG was evaluated in plasma and urine using pooled samples for each subject to assist in establishing the mechanism of any potential drug interaction (see Supplementary Material).
Dolutegravir and EFV were measured in plasma samples using validated methods, which consisted of extraction from plasma by protein precipitation with acetonitrile containing [^15N^2H7]dolutegravir or [^2H4]-efavirenz as the internal standards, respectively. The plasma extracts were injected onto a 2.1 × 50 mm 3.5-micron XBridge™ C18 column (Waters Associates, Milford, MA, USA). Dolutegravir was eluted with a mobile phase consisting of 40 % acetonitrile in aqueous 0.1 % formic acid, and EFV was eluted with a mobile phase consisting of acetonitrile/0.1 % formic acid (65 % v/v) in a 5-mM ammonium acetate buffer containing 0.1 % acetic acid (35 % v/v). The eluates were detected by using a Sciex API 4000™ (AB Sciex, Framingham, MA, USA) equipped with a TurboIonSpray® ionisation source with multiple reaction monitoring (DTG positive ion mode m/z 420 > 277; internal standard m/z 428 > 277; EFV negative ion mode m/z 314 > 243; internal standard m/z 318 > 247). Data acquisition and processing were performed with Analyst 1.4.2 software (AB Sciex), and linear regression analysis calculations were performed using the Study Management System, SMS™ 2000 v.2.2 (GlaxoSmithKline, Research Triangle Park, NC, USA). The calibration range for DTG was 0.020 to 20 μg/mL and for EFV was 0.10 to 20 μg/mL. Quality control samples prepared separately at three concentrations were stored with study samples and analysed with each batch of samples against separately prepared calibration standards.
A non-compartmental PK analysis of the concentration-time data was performed with WinNonlin (version 5.2, Pharsight Corporation, Mountain View, CA, USA). Plasma PK parameters for both DTG and EFV were calculated using actual recorded times for each treatment. Parameters that were determined included AUC from time zero to the end of the dosage interval (AUC(0–τ)), maximum observed plasma concentration (C max), the time of maximum observed plasma concentration (T max) and plasma concentration at the end of the dosing interval (C τ).
A blood sample was taken from 9 of 12 subjects in the EFV study who gave consent for pharmacogenetic analysis, and genomic DNA was extracted. Twenty-three polymorphisms from five genes/gene regions previously implicated in EFV metabolism were genotyped (Table 1). Only polymorphisms possibly conferring reduced enzyme activity were investigated. Due to the small number of samples available, no statistical modelling was planned or performed. However, the probabilities for each possible experimental outcome, based on the distribution of polymorphism carrier status between cases and controls and an assumption of no genetic association, were calculated a priori.

[2] = EFV product label, cited from earlier work
[3] = design: method as in PMID 18769354; details: EVG 200 mg once daily with TPV/r 500/200 mg twice daily, healthy subjects; cited from earlier work
[4] = Urinary metabolic profile of DTG (pooled urine); format: in vivo, human; details: pooled urine 0-24 h, n=12, mean (standard deviation)
Experimental: (§1) There was no washout between treatment periods. All doses were administered in the fasting state.
(§2) Urine samples were collected at intervals of 0 to 12 hours and 12 to 24 hours after each treatment period. Individual urine pools were produced for each subject in a given treatment group by combining proportional volumes (% of total volume) from the 0- to 12-hours and 12- to 24-hours collections. Individual pooled human plasma samples were prepared for each subject and treatment group.
(§3) Each pooled plasma sample was mixed with aqueous EDTA disodium salt solution (10 mg/mL) and subsequently extracted 3 times with methanol and acetonitrile. Pooled urine samples were lyophilised and the residue was reconstituted in water:methanol (90:10 v/v). Drug-related components in plasma extracts and urine samples were separated on a 100 × 4.6 mm 3.5-micron Symmetry C18 column (Waters Associates) at 40°C by a step-gradient elution method with a mobile phase composition of water:acetonitrile containing 0.1% ammonium acetate starting at 95:5 (v/v) and ending at 5:95 (v/v) over 50 minutes. The eluate was analysed by multistage mass spectrometry (MSn) using an LTQ Orbitrap™ Hybrid Mass Spectrometer with Xcalibur 2.07 software (Thermo Fisher Scientific, Bremen, Germany). Data-dependent scanning using an accurate mass list, consisting of all previously characterised metabolites, was used in addition to analysis of pre-dose samples to aid in the distinction of drug-related material from endogenous components.

[5] = Plasma metabolic profile of DTG (pooled plasma); format: in vivo, human; details: pooled plasma, both treatment groups
Experimental: as §1, §2
as §3, with “Data-dependent scanning using an accurate mass list, consisting of all previously characterised metabolites, was used in addition to analysis of pre-dose samples to aid in the distinction of drug-related material from endogenous components.” left out

[6] = with TPV/r; cited from earlier work
[7] = in vivo; cited from earlier work
[8] = Safety evaluations, interaction study with TPV/r; format: in vivo, human
Experimental: In both studies, safety evaluations [adverse event (AE) reporting, clinical chemistry laboratory tests, urinalysis, vital signs and electrocardiogram] were performed throughout the study. Given the known hepatotoxicity profile of TPV/r, more frequent monitoring of liver chemistries was performed in the TPV/r study, and conservative stopping criteria were employed such that any subject reaching a grade 2 increase in alanine aminotransferase (ALT) or aspartate aminotransferase (AST) was discontinued from the trial. Both trials were conducted as inpatient studies with subjects housed in the unit for the duration of the study. The studies were conducted in accordance with the principles of the Declaration of Helsinki. A written informed consent was obtained from all subjects, and both protocols were approved by the institutional review board of the study sites.

CYP3A4/5 = details: in vivo, cited from earlier work
[9] = in vivo, EFV with DTG, CYP2B6*1/*1 or *1/*6 subjects n=6, geometric mean (CV%)
[10] = in vivo, EFV with DTG, CYP2B6*6/*6 subjects n=3, geometric mean (CV%)
[11] = in vivo, EFV with DTG, all subjects n=12, geometric mean (CV%)

With O=C1Nc2ccc(Cl)cc2[C@@](C#CC2CC2)(C(F)(F)F)O1 [EFV, efavirenz] the “C τ” value ([1]; EFV with DTG, CYP2B6*1/*1 or *1/*6 subjects n=6, geometric mean (CV%)) was 1.45 (40) μg/mL, the AUC [1, 9] was 55700 ng·h/mL and the AUC [1, 10] was 174000 ng·h/mL. It also gave an AUC [1, 11] of 84200 ng·h/mL, a Cmax ([1]; in vivo, EFV 600 mg q24h with DTG 50 mg, all subjects n=12, geometric mean (CV%)) of 6020 ng/mL and a Cmax [1, 9] of 4520 ng/mL. The Cmax [1, 10] was 9500 ng/mL, the concentration at 24 h [1, 10] was 5850 ng/mL and the concentration at 24 h [1, 11] was 2410 ng/mL. For the same molecule, the Tmax ([1]; in vivo, EFV with DTG, CYP2B6*1/*1 or *1/*6 subjects n=6, median (range)) was 2.5 h, the Tmax ([1]; in vivo, EFV with DTG, CYP2B6*6/*6 subjects n=3, median (range)) was 2 h and the Tmax ([1]; in vivo, EFV with DTG, all subjects n=12, median (range)) was 2.5 h. The half-life [1, 9] was 15.6 h, the half-life [1, 10] was 39.1 h and the half-life [1, 11] was 22.2 h. For the same molecule, the “EFV exposures in CYP2B6*6 homozygous subjects relative to CYP2B6*1/*1 or *1/*6 carriers” value ([1]; in vivo) was “two- to fourfold higher”, the “mean C max” value [2] was 4070 ng/mL and the Cmax ([2]; read-out: mean C max) was 12.9 µM.
For COc1cc2c(cc1Cc1cccc(Cl)c1F)c(=O)c(C(=O)O)cn2[C@H](CO)C(C)C [EVG, Elvitegravir], the “changes in PK” value [3] is listed as “No significant changes”.
For C[C@@H]1CCO[C@H]2Cn3cc(C(=O)NCc4ccc(F)cc4F)c(=O)c(O[C@@H]4O[C@H](C(=O)O)[C@@H](O)[C@H](O)[C@H]4O)c3C(=O)N12 [M2], the “% DTG” value ([4]; DTG 50 mg + EFV q24h) was 1,633 (607) %, the “% Total drug-related response” value ([4]; DTG 50 mg + EFV q24h) was 79.8 (9.3) % and the “% DTG” value ([4]; DTG 50 mg q24h) was 1,188 (275) %. For the same molecule, the “% Total drug-related response” value ([4]; DTG 50 mg q24h) was 72.8 (10.9) % and the “amount in plasma relative to DTG (mean)” value [5] was < 2 % of DTG.
With C[C@@H]1CCO[C@H]2Cn3cc(C(=O)NC(O)c4ccc(F)cc4F)c(=O)c(O)c3C(=O)N12 (stereo partly shown) [M3] the “% DTG” value ([4]; DTG 50 mg + EFV q24h) was 38.8 (48.6) %, the “% Total drug-related response” value ([4]; DTG 50 mg + EFV q24h) was 1.9 (2.4) % and the “% DTG” value ([4]; DTG 50 mg q24h) was 51.9 (57.3) %. For the same molecule, the “% Total drug-related response” value ([4]; DTG 50 mg q24h) was 2.9 (2.6) %.
For Cc1nnc(C(=O)NC(C)(C)c2nc(C(=O)NCc3ccc(F)cc3)c(O)c(=O)n2C)o1 [RAL, raltegravir], the “decrease of AUC(0–12)” value [6] is listed as 24%.
For CC(C)CN(C[C@@H](O)[C@H](Cc1ccccc1)NC(=O)O[C@H]1CCOC1)S(=O)(=O)c1ccc(N)cc1 [amprenavir], the “decrease of Cmin” value [7] is given as 56%.
In the case of CC(C)(C)NC(=O)[C@@H]1C[C@@H]2CCCC[C@@H]2CN1C[C@@H](O)[C@H](Cc1ccccc1)NC(=O)[C@H](CC(N)=O)NC(=O)c1ccc2ccccc2n1 [saquinavir], the “decrease of Cmin” value [7] is given as 80%.
For tipranavir/ritonavir [TPV/r], the subjects reporting nausea ([8]; healthy subjects n=18) was 22%, the subjects reporting vomiting ([8]; healthy subjects n=18) was 11% and the “subjects with grade 2 increases in AST” value ([8]; n=18, began during TPV/r alone (period 2)) was “Three”. For the same molecule, the “subjects with grade 2 increases in ALT leading to discontinuation” value ([8]; n=18, began during TPV/r alone (period 2), considered related to TPV/r) was “Four”, the “effect on CYP3A4/5” value (CYP3A4/5; after a single dose) was “moderately inhibits” and the “effect on CYP3A4/5” value (CYP3A4/5; after repeated dosing) was “induces”.
